Measured values from patent US8765791B2, “Method of treating cancer using a neuropeptide Y 5R (NP Y5R) antagonist” (University Health Network, priority 2008, dated 2014).

Legend:
[1] = system: Breast cancer cells, MDA MB 468; experiment: breast cancer xenograft model, MK0557 and 5-FU (Example 15); type: in vivo, CB17-SCID; details: 5-FU alone, 30 mg/kg ip q.d.×5 days
Experimental: Breast cancer cells, MDA MB 468, were injected into CB17-SCID. The treatments were started day 14 after tumor implantation. […] Tumor volume and tumor growth were monitored during the experiment.

[2] = system: Breast cancer cells, MDA MB 468; experiment: breast cancer xenograft model (Example 11); type: in vivo, SCID mice; details: 10 mg/kg i.p. 3/week, approximately 4 weeks
Experimental: Breast cancer cells, MDA MB 468 (12 million), were injected subcutaneously (s.c.) on the neck of SCID mice (CB17, female, 4-6 weeks old) (Charles River, Wilmington, Mass.). The mice were divided into four groups, 5 mice for each group. The treatments were started when the tumor volume reached about 100 mm^3, day 22 after tumor implantation. […] The tumor sizes were monitored every 3 or 4 days. […] (FIG. 12)

[3] = system: Hodgkin Lymphoma cells, HD-MYZ; experiment: Hodgkin's lymphoma xenograft model, MK-0557 and 200464 (Example 16); type: in vivo; details: for inhibition rate (tumor volume) / inhibition rate (tumor weight): versus vehicle
From the text: Hodgkin lymphoma cells, HD-MYZ, were implanted in NOD-SCID mice, female, 4-6 weeks from Jackson's Laboratory (Maine). The treatments were started day 6 after tumor implantation. The mice were divided to six groups, 4-5 mice from each group. The treatment started with a tumor volume of about 70 mm3 after tumor implantation.

[4] = system: Hodgkin Lymphoma cells, HD-MYZ; experiment: Hodgkin lymphoma xenograft model, MK0557 vs AVASTIN (Example 14); type: in vivo, NOD-SCID mice; details: 5 mg/kg i.p. 1/week×3 weeks
From the text: Hodgkin lymphoma cells, HD-MYZ, were implanted in NOD-SCID mice. […] Tumor volume and tumor growth were monitored during the experiment.

[5] = system: Hodgkin Lymphoma cells, HD-MYZ; experiment: Hodgkin lymphoma xenograft model (Example 12); type: in vivo, NOD-SCID mice; details: 5 mg/kg i.p. 1/week, approximately 2 weeks
From the text: Hodgkin lymphoma cells, HD-MYZ (1 million), were implanted s.c. on the right flank of NOD-SCID mice (Cat#001303, female, 4-6 weeks from Jackson laboratories, Bar Harbor, Me.). The mice were divided into four groups, 5 mice for each group. […] The tumor growth was monitored during the experiment. […] (FIG. 13)

[6] = group 2: 200464 20 mg/kg i.p. 3 times for each week
[7] = group 3: 200464 40 mg/kg i.p. 3 times for each week

O=c1[nH]cc(F)c(=O)[nH]1 [5-FU, 5-fluorouracil]
Mean Tumor Volume [1]: 434.44±56.63 mm^3 | Mean Tumor Weight [1]: 0.1892 ± 0.026 g | inhibition rate (tumor volume) ([1]; versus vehicle): 32.35% | inhibition rate (tumor weight) ([1]; versus vehicle): 26.55% | tumor growth [2]: inhibited tumor growth

CC[C@@H]1C(=O)N(C)c2cnc(Nc3ccc(C(=O)NC4CCN(C)CC4)cc3OC)nc2N1C1CCCC1 [compound 200464]
Mean Tumor Volume [3, 6]: 754.55+/−158.32 mm^3 | Mean Tumor Weight [3, 6]: 0.8788 ± 0.2674 g | inhibition rate (tumor volume) [3, 6]: 62.26% | inhibition rate (tumor weight) [3, 6]: 5.42% | Mean Tumor Volume [3, 7]: 565.75+/−176.13 mm^3 | Mean Tumor Weight [3, 7]: 0.5472 ± 0.2097 g | inhibition rate (tumor volume) [3, 7]: 49.66% | inhibition rate (tumor weight) [3, 7]: 41.11% | tolerability of the doses by the mice ([3]; mouse, in vivo): well tolerated

bevacizumab [AVASTIN®]
Mean Tumor Volume [4]: 672.53±85.56 mm^3 | Mean Tumor Weight [4]: 0.33 ± 0.03 g | inhibition rate (tumor volume) ([4]; versus vehicle): 74.14% | inhibition rate (tumor weight) ([4]; versus vehicle): 86.96% | tumor growth [5]: inhibited tumor growth
